Consider 13 molecules from patent publication US7868026B2, “Therapeutic compounds” (Pfizer Inc., priority 2005, dated 2011).

Where only a bound is given, the exact number is not on record here.

T1 sequence (P08684 whole entry): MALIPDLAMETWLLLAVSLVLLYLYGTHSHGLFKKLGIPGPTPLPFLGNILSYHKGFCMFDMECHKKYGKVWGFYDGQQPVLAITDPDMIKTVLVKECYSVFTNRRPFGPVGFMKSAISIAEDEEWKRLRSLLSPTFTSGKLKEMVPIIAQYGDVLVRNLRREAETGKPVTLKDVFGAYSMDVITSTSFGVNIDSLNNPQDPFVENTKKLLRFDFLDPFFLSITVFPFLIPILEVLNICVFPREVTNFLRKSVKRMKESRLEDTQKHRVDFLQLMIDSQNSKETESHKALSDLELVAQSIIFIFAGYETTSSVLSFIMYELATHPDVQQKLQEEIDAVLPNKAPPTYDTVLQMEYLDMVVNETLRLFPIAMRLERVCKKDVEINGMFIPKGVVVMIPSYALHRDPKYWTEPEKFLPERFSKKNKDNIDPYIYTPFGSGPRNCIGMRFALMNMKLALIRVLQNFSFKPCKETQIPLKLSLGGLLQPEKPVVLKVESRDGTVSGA

One experiment addresses T1, CYP3A4 (Homo sapiens, UniProt P08684). Put plainly: Determination of compound Kiapp against recombinant CYP3A4 enzyme (BFC fluorescent substrate). The format is biochemical. The note with it: Baculo. enzyme preparation, read-out: Kiapp (BFC, Baculo.). Put shortly: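 Kiapp derived from initial velocities over the first 5 min of BFC (5 uM) oxidation, using Morrison's tight-binding equation for non-partial and Szedlacsek's for partial inhibitors. Inhibitor first pre-incubated ≥30 min with CYP3A4 (5.5 or 8 nM, ±b5) in pH 7.0 phosphate/TCEP/2% DMF at room temperature; 200 uM NADPH initiated.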
In the case of `CC1CC(C)CN(C(=O)c2ccccc2S(=O)(=O)N(C)c2cccnc2)C1` (stereo not shown) [Example 358, 2-[(3,5-dimethylpiperidin-1-yl)carbonyl]-N-methyl-N-pyridin-3-ylbenzenesulfonamide], the Ki is 0.592 µM.
In the case of `CN(c1cccnc1)S(=O)(=O)c1ccccc1C(=O)NCC(C)(C)C` [Example 359, N-(2,2-dimethylpropyl)-2-{[methyl(pyridin-3-yl)amino]sulfonyl}benzamide], the Ki is 0.593 µM.
Take `CCCCCNC(=O)c1ccccc1S(=O)(=O)Nc1cncc(C)c1` [Example 360, 2-{[(5-methylpyridin-3-yl)amino]sulfonyl}-N-pentylbenzamide]: the Ki turned out to be 0.0808 µM.
The same measure, in the same setting: in the case of `COc1ccc(CNC(=O)c2ccccc2S(=O)(=O)Nc2cncc(C)c2)cc1` [Example 361, N-(4-methoxybenzyl)-2-{[(5-methylpyridin-3-yl)amino]sulfonyl}benzamide] it was 0.274 µM.
Still for that read-out and setting: in the case of `Cc1cncc(NS(=O)(=O)c2ccccc2C(=O)NCCC(C)C)c1` [Example 362, N-(3-methylbutyl)-2-{[(5-methylpyridin-3-yl)amino]sulfonyl}benzamide] it was 0.0944 µM; in that of `Cc1cncc(NS(=O)(=O)c2ccccc2C(=O)N2CCC(C)CC2)c1` [Example 363, 2-[(4-methylpiperidin-1-yl)carbonyl]-N-(5-methylpyridin-3-yl)benzenesulfonamide], 0.169 µM.
Same read-out and setting: in the case of `CCCCCNC(=O)c1ccccc1S(=O)(=O)N(C)c1cncc(OC)c1` [Example 364, 2-{[(5-methoxypyridin-3-yl)(methyl)amino]sulfonyl}-N-pentylbenzamide] it was 0.0868 µM; in that of `COc1cncc(NS(=O)(=O)c2ccccc2C(=O)N2CCC(O)CC2)c1` [Example 365, 2-[(4-hydroxypiperidin-1-yl)carbonyl]-N-(5-methoxypyridin-3-yl)benzenesulfonamide], greater than 1 µM; in that of `COc1cncc(NS(=O)(=O)c2ccccc2C(=O)N2CCC(OC)CC2)c1` [Example 366, 2-[(4-methoxypiperidin-1-yl)carbonyl]-N-(5-methoxypyridin-3-yl)benzenesulfonamide], 0.553 µM.
Consider `COc1cncc(NS(=O)(=O)c2ccccc2C(=O)N2CCOCC2)c1` [Example 367, N-(5-methoxypyridin-3-yl)-2-(morpholin-4-ylcarbonyl)benzenesulfonamide], for which the Ki is 0.57 µM.
Still for that read-out and setting: in the case of `COc1cncc(NS(=O)(=O)c2ccccc2C(=O)NCc2ccc(F)c(F)c2)c1` [Example 368, N-(3,4-difluorobenzyl)-2-{[(5-methoxypyridin-3-yl)amino]sulfonyl}benzamide] it was 0.0076 µM.
Same read-out and setting: in the case of `COc1cncc(NS(=O)(=O)c2ccccc2C(=O)N2CCCC2)c1` [Example 369, N-(5-methoxypyridin-3-yl)-2-(pyrrolidin-1-ylcarbonyl)benzenesulfonamide] it was 0.35 µM; in that of `COc1cncc(NS(=O)(=O)c2ccccc2C(=O)N(C)CCc2ccccc2)c1` [Example 370, 2-{[(5-methoxypyridin-3-yl)amino]sulfonyl}-N-methyl-N-(2-phenylethyl)benzamide], 0.0529 µM.

Staying with this experiment, now noted: Super. enzyme preparation, read-out: Kiapp (BFC, Super.).
For `CC1CC(C)CN(C(=O)c2ccccc2S(=O)(=O)N(C)c2cccnc2)C1` (stereo not shown) [Example 358, 2-[(3,5-dimethylpiperidin-1-yl)carbonyl]-N-methyl-N-pyridin-3-ylbenzenesulfonamide], the Ki was found to be 0.137 µM.
Consider `CN(c1cccnc1)S(=O)(=O)c1ccccc1C(=O)NCC(C)(C)C` [Example 359, N-(2,2-dimethylpropyl)-2-{[methyl(pyridin-3-yl)amino]sulfonyl}benzamide], for which the Ki came out at 0.14 µM.
Still for that read-out and setting: in the case of `CCCCCNC(=O)c1ccccc1S(=O)(=O)Nc1cncc(C)c1` [Example 360, 2-{[(5-methylpyridin-3-yl)amino]sulfonyl}-N-pentylbenzamide] it was 0.0218 µM; in that of `COc1ccc(CNC(=O)c2ccccc2S(=O)(=O)Nc2cncc(C)c2)cc1` [Example 361, N-(4-methoxybenzyl)-2-{[(5-methylpyridin-3-yl)amino]sulfonyl}benzamide], 0.0414 µM.
The same measure, in the same setting: in the case of `Cc1cncc(NS(=O)(=O)c2ccccc2C(=O)NCCC(C)C)c1` [Example 362, N-(3-methylbutyl)-2-{[(5-methylpyridin-3-yl)amino]sulfonyl}benzamide] it was 0.0229 µM; in that of `Cc1cncc(NS(=O)(=O)c2ccccc2C(=O)N2CCC(C)CC2)c1` [Example 363, 2-[(4-methylpiperidin-1-yl)carbonyl]-N-(5-methylpyridin-3-yl)benzenesulfonamide], 0.0364 µM; in that of `CCCCCNC(=O)c1ccccc1S(=O)(=O)N(C)c1cncc(OC)c1` [Example 364, 2-{[(5-methoxypyridin-3-yl)(methyl)amino]sulfonyl}-N-pentylbenzamide], 0.0234 µM.
On to `COc1cncc(NS(=O)(=O)c2ccccc2C(=O)N2CCC(O)CC2)c1` [Example 365, 2-[(4-hydroxypiperidin-1-yl)carbonyl]-N-(5-methoxypyridin-3-yl)benzenesulfonamide], for which the Ki worked out at 0.515 µM.
On the same count and under the same terms, in the case of `COc1cncc(NS(=O)(=O)c2ccccc2C(=O)N2CCC(OC)CC2)c1` [Example 366, 2-[(4-methoxypiperidin-1-yl)carbonyl]-N-(5-methoxypyridin-3-yl)benzenesulfonamide] it was 0.0651 µM; in that of `COc1cncc(NS(=O)(=O)c2ccccc2C(=O)N2CCOCC2)c1` [Example 367, N-(5-methoxypyridin-3-yl)-2-(morpholin-4-ylcarbonyl)benzenesulfonamide], 0.148 µM.
The same measure, in the same setting: in the case of `COc1cncc(NS(=O)(=O)c2ccccc2C(=O)NCc2ccc(F)c(F)c2)c1` [Example 368, N-(3,4-difluorobenzyl)-2-{[(5-methoxypyridin-3-yl)amino]sulfonyl}benzamide] it was 0.0011 µM; in that of `COc1cncc(NS(=O)(=O)c2ccccc2C(=O)N2CCCC2)c1` [Example 369, N-(5-methoxypyridin-3-yl)-2-(pyrrolidin-1-ylcarbonyl)benzenesulfonamide], 0.0532 µM.
Same read-out and setting: in the case of `COc1cncc(NS(=O)(=O)c2ccccc2C(=O)N(C)CCc2ccccc2)c1` [Example 370, 2-{[(5-methoxypyridin-3-yl)amino]sulfonyl}-N-methyl-N-(2-phenylethyl)benzamide] it was 0.019 µM.

For a further experiment, the target named is T1, CYP3A4. Put plainly: Determination of IC50 against CYP3A4 by measurement of inhibition of testosterone metabolism (human liver microsomes, 6-β-OH-testosterone by LC-MS/MS). The experiment is classed as biochemical. On the set-up: 0.1 mg/mL human liver microsomes. The note with it: read-out: IC50 (Testo.). Put shortly: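 6-β-OH-testosterone formation was read by LC-MS/MS (MRM, internal standard, standard curve) after eight minutes. Reaction contained testosterone 25 μM, NADPH 1 mM and microsomal protein 0.1 mg/mL in pH 7.4 potassium phosphate (100 mM).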
Regarding `CC1CC(C)CN(C(=O)c2ccccc2S(=O)(=O)N(C)c2cccnc2)C1` (stereo not shown) [Example 358, 2-[(3,5-dimethylpiperidin-1-yl)carbonyl]-N-methyl-N-pyridin-3-ylbenzenesulfonamide], the IC50 was determined as 0.1 µM.
Still for that read-out and setting: in the case of `CN(c1cccnc1)S(=O)(=O)c1ccccc1C(=O)NCC(C)(C)C` [Example 359, N-(2,2-dimethylpropyl)-2-{[methyl(pyridin-3-yl)amino]sulfonyl}benzamide] it was 0.26 µM.
On the same count and under the same terms, as for `CCCCCNC(=O)c1ccccc1S(=O)(=O)Nc1cncc(C)c1` [Example 360, 2-{[(5-methylpyridin-3-yl)amino]sulfonyl}-N-pentylbenzamide], the figure is 0.043 µM.
For the molecule `COc1ccc(CNC(=O)c2ccccc2S(=O)(=O)Nc2cncc(C)c2)cc1` [Example 361, N-(4-methoxybenzyl)-2-{[(5-methylpyridin-3-yl)amino]sulfonyl}benzamide], the IC50 turned out to be 0.04 µM.
For `Cc1cncc(NS(=O)(=O)c2ccccc2C(=O)NCCC(C)C)c1` [Example 362, N-(3-methylbutyl)-2-{[(5-methylpyridin-3-yl)amino]sulfonyl}benzamide], the IC50 was found to be 0.044 µM.
On the same count and under the same terms, as for `Cc1cncc(NS(=O)(=O)c2ccccc2C(=O)N2CCC(C)CC2)c1` [Example 363, 2-[(4-methylpiperidin-1-yl)carbonyl]-N-(5-methylpyridin-3-yl)benzenesulfonamide], the figure is 0.076 µM; as for `CCCCCNC(=O)c1ccccc1S(=O)(=O)N(C)c1cncc(OC)c1` [Example 364, 2-{[(5-methoxypyridin-3-yl)(methyl)amino]sulfonyl}-N-pentylbenzamide], 0.049 µM.
On the same count and under the same terms, as for `COc1cncc(NS(=O)(=O)c2ccccc2C(=O)N2CCC(O)CC2)c1` [Example 365, 2-[(4-hydroxypiperidin-1-yl)carbonyl]-N-(5-methoxypyridin-3-yl)benzenesulfonamide], the figure is greater than 0.75 µM.
As to `COc1cncc(NS(=O)(=O)c2ccccc2C(=O)N2CCC(OC)CC2)c1` [Example 366, 2-[(4-methoxypiperidin-1-yl)carbonyl]-N-(5-methoxypyridin-3-yl)benzenesulfonamide], the IC50 is greater than 0.75 µM.
With `COc1cncc(NS(=O)(=O)c2ccccc2C(=O)N2CCOCC2)c1` [Example 367, N-(5-methoxypyridin-3-yl)-2-(morpholin-4-ylcarbonyl)benzenesulfonamide], the IC50 is greater than 0.75 µM.
Same read-out and setting: as for `COc1cncc(NS(=O)(=O)c2ccccc2C(=O)NCc2ccc(F)c(F)c2)c1` [Example 368, N-(3,4-difluorobenzyl)-2-{[(5-methoxypyridin-3-yl)amino]sulfonyl}benzamide], the figure is 0.018 µM; as for `COc1cncc(NS(=O)(=O)c2ccccc2C(=O)N2CCCC2)c1` [Example 369, N-(5-methoxypyridin-3-yl)-2-(pyrrolidin-1-ylcarbonyl)benzenesulfonamide], 0.181 µM; as for `COc1cncc(NS(=O)(=O)c2ccccc2C(=O)N(C)CCc2ccccc2)c1` [Example 370, 2-{[(5-methoxypyridin-3-yl)amino]sulfonyl}-N-methyl-N-(2-phenylethyl)benzamide], 0.008 µM.

Another experiment has as its target T1, CYP3A4. Put plainly: Determination of IC50 against CYP3A4 by measurement of inhibition of midazolam metabolism (human liver microsomes, 1-hydroxymidazolam by LC-MS/MS). Further details: 0.1 mg/mL human liver microsomes. The experiment is classed as biochemical. The settings on record: 2 μM midazolam, 0.1 mg/mL human liver microsomes. Put shortly: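 Human liver microsomes (0.1 mg/mL) incubated 8 min with 2 μM midazolam and 1 mM NADPH in 100 mM potassium phosphate, pH 7.4. 1-Hydroxymidazolam quantified by LC-MS/MS (MRM) as peak area ratio to internal standard against a metabolite standard curve.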
For orientation: Microsomes from liver hold many membrane-bound enzymes, among them those of drug oxidation.
Regarding `CC1CC(C)CN(C(=O)c2ccccc2S(=O)(=O)N(C)c2cccnc2)C1` (stereo not shown) [Example 358, 2-[(3,5-dimethylpiperidin-1-yl)carbonyl]-N-methyl-N-pyridin-3-ylbenzenesulfonamide], the IC50 was 0.068 µM.
Take `CN(c1cccnc1)S(=O)(=O)c1ccccc1C(=O)NCC(C)(C)C` [Example 359, N-(2,2-dimethylpropyl)-2-{[methyl(pyridin-3-yl)amino]sulfonyl}benzamide]: the IC50 was 0.101 µM.
The same measure, in the same setting: in the case of `CCCCCNC(=O)c1ccccc1S(=O)(=O)Nc1cncc(C)c1` [Example 360, 2-{[(5-methylpyridin-3-yl)amino]sulfonyl}-N-pentylbenzamide] it was 0.025 µM.
On the same count and under the same terms, in the case of `COc1ccc(CNC(=O)c2ccccc2S(=O)(=O)Nc2cncc(C)c2)cc1` [Example 361, N-(4-methoxybenzyl)-2-{[(5-methylpyridin-3-yl)amino]sulfonyl}benzamide] it was 0.016 µM; in that of `Cc1cncc(NS(=O)(=O)c2ccccc2C(=O)NCCC(C)C)c1` [Example 362, N-(3-methylbutyl)-2-{[(5-methylpyridin-3-yl)amino]sulfonyl}benzamide], 0.026 µM; in that of `Cc1cncc(NS(=O)(=O)c2ccccc2C(=O)N2CCC(C)CC2)c1` [Example 363, 2-[(4-methylpiperidin-1-yl)carbonyl]-N-(5-methylpyridin-3-yl)benzenesulfonamide], 0.037 µM.
For the molecule `CCCCCNC(=O)c1ccccc1S(=O)(=O)N(C)c1cncc(OC)c1` [Example 364, 2-{[(5-methoxypyridin-3-yl)(methyl)amino]sulfonyl}-N-pentylbenzamide], the IC50 amounted to 0.033 µM.
The same measure, in the same setting: in the case of `COc1cncc(NS(=O)(=O)c2ccccc2C(=O)N2CCC(O)CC2)c1` [Example 365, 2-[(4-hydroxypiperidin-1-yl)carbonyl]-N-(5-methoxypyridin-3-yl)benzenesulfonamide] it was greater than 0.75 µM; in that of `COc1cncc(NS(=O)(=O)c2ccccc2C(=O)N2CCC(OC)CC2)c1` [Example 366, 2-[(4-methoxypiperidin-1-yl)carbonyl]-N-(5-methoxypyridin-3-yl)benzenesulfonamide], 0.253 µM.
On to `COc1cncc(NS(=O)(=O)c2ccccc2C(=O)N2CCOCC2)c1` [Example 367, N-(5-methoxypyridin-3-yl)-2-(morpholin-4-ylcarbonyl)benzenesulfonamide], for which the IC50 was found to be 0.317 µM.
Regarding `COc1cncc(NS(=O)(=O)c2ccccc2C(=O)NCc2ccc(F)c(F)c2)c1` [Example 368, N-(3,4-difluorobenzyl)-2-{[(5-methoxypyridin-3-yl)amino]sulfonyl}benzamide], the IC50 stood at 0.006 µM.
`COc1cncc(NS(=O)(=O)c2ccccc2C(=O)N2CCCC2)c1` [Example 369, N-(5-methoxypyridin-3-yl)-2-(pyrrolidin-1-ylcarbonyl)benzenesulfonamide]: the IC50 was found to be 0.098 µM.
Regarding `COc1cncc(NS(=O)(=O)c2ccccc2C(=O)N(C)CCc2ccccc2)c1` [Example 370, 2-{[(5-methoxypyridin-3-yl)amino]sulfonyl}-N-methyl-N-(2-phenylethyl)benzamide], the 50% inhibitory concentration (IC50) was 0.012 µM.

For orientation: IC50 means the concentration needed to halve the response being measured.
